US20060069132A1, “Azolecarboxamide herbicides” (priority 2004, published 2006)

How the values were obtained:
[1] = system: barnyardgrass; assay: Test B pre-/postemergence herbicide test; type: in vivo, Echinochloa crus-galli; details: for Plant response rating (0 to 100 scale), Barnyardgrass: 0 is no effect, 100 is complete control, preemergence; for Barnyardgrass plant response rating: Postemergence, scale 0 (no effect) to 100 (complete control)
Outline: (§1)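 Herbicidal effect was judged by eye on a 0–100 scale after plants stood 13 to 15 days in the greenhouse following pre- or postemergence treatment with surfactant-containing formulations.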

[2] = system: Surinam grass; assay: Test B pre-/postemergence herbicide test; type: in vivo, Urochloa decumbens; details: for Plant response rating (0 to 100 scale), Surinam Grass: 0 is no effect, 100 is complete control, preemergence
Outline: (§2)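 Greenhouse pot assay with simultaneous preemergence (treated seed) and postemergence (2–18 cm seedlings) applications of surfactant-containing, non-phytotoxic solvent formulations. Response scored visually 13–15 days later on a 0–100 scale, 100 meaning complete control.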

[3] = system: cocklebur; assay: Test B pre-/postemergence herbicide test; type: in vivo, Xanthium strumarium; details: for Plant response rating (0 to 100 scale), Cocklebur: 0 is no effect, 100 is complete control, preemergence
Outline: as §1

[4] = system: corn; assay: Test B pre-/postemergence herbicide test; type: in vivo, Zea mays; details: for Plant response rating (0 to 100 scale), Corn: 0 is no effect, 100 is complete control, preemergence
Outline: as §2

[5] = system: large crabgrass; assay: Test B pre-/postemergence herbicide test; type: in vivo, Digitaria sanguinalis; details: for Plant response rating (0 to 100 scale), Crabgrass, Large: 0 is no effect, 100 is complete control, preemergence
Outline: as §2

[6] = system: giant foxtail; assay: Test B pre-/postemergence herbicide test; type: in vivo, Setaria faberi; details: for Plant response rating (0 to 100 scale), Foxtail, Giant: 0 is no effect, 100 is complete control, preemergence
Outline: as §2

[7] = system: lambsquarters; assay: Test B pre-/postemergence herbicide test; type: in vivo, Chenopodium album
Outline: as §2

[8] = system: morningglory; assay: Test B pre-/postemergence herbicide test; type: in vivo, Ipomoea coccinea; details: for Plant response rating (0 to 100 scale), Morningglory: 0 is no effect, 100 is complete control, preemergence
Outline: as §1

[9] = system: pigweed; assay: Test B pre-/postemergence herbicide test; type: in vivo, Amaranthus retroflexus; details: for Plant response rating (0 to 100 scale), Pigweed: 0 is no effect, 100 is complete control, preemergence
Outline: as §2

[10] = system: velvetleaf; assay: Test B pre-/postemergence herbicide test; type: in vivo, Abutilon theophrasti; details: for Plant response rating (0 to 100 scale), Velvetleaf: 0 is no effect, 100 is complete control, preemergence
Outline: as §2

[11] = system: blackgrass; assay: Test B postemergence herbicide test; type: in vivo, Alopecurus myosuroides
Outline: (§3)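 Treated at 2-leaf (paddy) or 1–4-leaf, 2–18 cm (postemergence); greenhouse 13–15 d; visual score vs control, 0 none to 100 complete control; dash = not tested.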

[12] = system: wheat; assay: Test B postemergence herbicide test; type: in vivo, Triticum aestivum; set-up: key to Wheat plant response rating: 0 = no effect, 100 = complete control
Outline: (§4)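 After treating 2-leaf paddy plants or 2–18 cm postemergence plants (1 to 4 leaves) with formulated chemical, researchers kept them in a greenhouse for 13–15 days. Effects were judged visually versus controls: 0 indicates none, 100 total control.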

[13] = system: wild oat; assay: Test B postemergence herbicide test; type: in vivo, Avena fatua
Outline: as §4

[14] = system: rice; assay: Test B flooded paddy test; type: in vivo, Oryza sativa; details: 1000 g ai/ha, scale 0 to 100 (0 no effect, 100 complete control)
Outline: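 Greenhouse test; postemergence application to plants at 1–4 leaves (2–18 cm); paddy species at 2 leaves; evaluated visually vs controls at 13–15 days; scale 0–100 (100 = complete control).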

[15] = system: small flower umbrella sedge; assay: Test B flooded paddy test; type: in vivo, Cyperus difformis; details: 1000 g ai/ha, scale 0 to 100 (0 no effect, 100 complete control)
Outline: as §3

[16] = system: ducksalad; assay: Test B flooded paddy test; type: in vivo, Heteranthera limosa; details: 1000 g ai/ha, scale 0 to 100 (0 no effect, 100 complete control)
Outline: as §3

[17] = system: barnyardgrass; assay: Test B flooded paddy test; type: in vivo, Echinochloa crus-galli; details: 1000 g ai/ha, scale 0 to 100 (0 no effect, 100 complete control)
Outline: as §3

[18] = Postemergence, 500 g ai/ha, scale 0 (no effect) to 100 (complete control)
[19] = postemergence, 125 g ai/ha, scale 0 to 100
[20] = 500 g ai/ha, scale 0 to 100, 0 no effect, 100 complete control, preemergence

CCc1nn(C(C)(C)C)nc1C(=O)Nc1cccc(C(=O)N2CCCCC2)c1 [Compound 416]
Plant response rating (0 to 100 scale), Barnyardgrass ([1]; 125 g ai/ha): 70 | Barnyardgrass plant response rating ([1]; 125 g ai/ha): 20 | Barnyardgrass plant response rating ([1]; 500 g ai/ha): 30 | Plant response rating (0 to 100 scale), Surinam Grass ([2]; 125 g ai/ha): 60 | Surinam Grass plant response rating [2, 18]: 30 | Surinam Grass plant response rating [2, 19]: 20 | Plant response rating (0 to 100 scale), Cocklebur ([3]; 125 g ai/ha): 0 | Cocklebur plant response rating [3, 18]: 60 | Cocklebur plant response rating [3, 19]: 50 | Plant response rating (0 to 100 scale), Corn ([4]; 125 g ai/ha): 20 | Corn plant response rating [4, 18]: 30 | Corn plant response rating [4, 19]: 20 | Plant response rating (0 to 100 scale), Crabgrass, Large ([5]; 125 g ai/ha): 100 | Crabgrass, Large plant response rating [5, 18]: 40 | Crabgrass, Large plant response rating [5, 19]: 30 | Plant response rating (0 to 100 scale), Foxtail, Giant ([6]; 125 g ai/ha): 70 | Foxtail, Giant plant response rating [6, 18]: 30 | Foxtail, Giant plant response rating [6, 19]: 20 | Lambsquarters plant response rating [7, 18]: 80 | Lambsquarters plant response rating [7, 19]: 70 | Plant response rating (0 to 100 scale), Morningglory ([8]; 125 g ai/ha): 0 | Morningglory plant response rating [8, 18]: 70 | Morningglory plant response rating [8, 19]: 30 | Plant response rating (0 to 100 scale), Pigweed ([9]; 125 g ai/ha): 70 | Pigweed plant response rating [9, 18]: 80 | Pigweed plant response rating [9, 19]: 60 | Plant response rating (0 to 100 scale), Velvetleaf ([10]; 125 g ai/ha): 10 | Velvetleaf plant response rating [10, 18]: 50 | Velvetleaf plant response rating [10, 19]: 40 | Blackgrass plant response rating [11, 18]: 30 | Blackgrass plant response rating [11, 19]: 20 | Wheat plant response rating [12, 20]: 60 | Wheat plant response rating [12, 18]: 30 | Wheat plant response rating [12, 19]: 20 | Oat, Wild plant response rating [13, 18]: 40 | Oat, Wild plant response rating [13, 19]: 30 | Rice plant response rating [14]: 70 | Sedge, Umbrella plant response rating [15]: 80 | Ducksalad plant response rating [16]: 90 | Barnyardgrass plant response rating [17]: 60

CCOC(=O)c1ccnc(NC(=O)c2nn(C(C)(C)C)nc2C)c1 [Compound 421]
Plant response rating (0 to 100 scale), Barnyardgrass ([1]; 125 g ai/ha): 0 | Barnyardgrass plant response rating ([1]; 125 g ai/ha): 0 | Barnyardgrass plant response rating ([1]; 500 g ai/ha): 0 | Plant response rating (0 to 100 scale), Surinam Grass ([2]; 125 g ai/ha): 0 | Surinam Grass plant response rating [2, 18]: 0 | Surinam Grass plant response rating [2, 19]: 0 | Plant response rating (0 to 100 scale), Cocklebur ([3]; 125 g ai/ha): 0 | Cocklebur plant response rating [3, 18]: 0 | Cocklebur plant response rating [3, 19]: 0 | Plant response rating (0 to 100 scale), Corn ([4]; 125 g ai/ha): 0 | Corn plant response rating [4, 18]: 0 | Corn plant response rating [4, 19]: 0 | Plant response rating (0 to 100 scale), Crabgrass, Large ([5]; 125 g ai/ha): 0 | Crabgrass, Large plant response rating [5, 18]: 0 | Crabgrass, Large plant response rating [5, 19]: 0 | Plant response rating (0 to 100 scale), Foxtail, Giant ([6]; 125 g ai/ha): 0 | Foxtail, Giant plant response rating [6, 18]: 0 | Foxtail, Giant plant response rating [6, 19]: 0 | Plant response rating (0 to 100 scale), Lambsquarters ([7]; 125 g ai/ha, 0 is no effect, 100 is complete control, preemergence): 0 | Lambsquarters plant response rating [7, 18]: 0 | Lambsquarters plant response rating [7, 19]: 0 | Plant response rating (0 to 100 scale), Morningglory ([8]; 125 g ai/ha): 0 | Morningglory plant response rating [8, 18]: 0 | Morningglory plant response rating [8, 19]: 0 | Plant response rating (0 to 100 scale), Pigweed ([9]; 125 g ai/ha): 0 | Pigweed plant response rating [9, 18]: 0 | Pigweed plant response rating [9, 19]: 0 | Plant response rating (0 to 100 scale), Velvetleaf ([10]; 125 g ai/ha): 0 | Velvetleaf plant response rating [10, 18]: 0 | Velvetleaf plant response rating [10, 19]: 0 | Blackgrass plant response rating [11, 18]: 20 | Blackgrass plant response rating [11, 19]: 20 | Wheat plant response rating [12, 20]: 0 | Wheat plant response rating [12, 18]: 0 | Wheat plant response rating [12, 19]: 0 | Oat, Wild plant response rating [13, 18]: 0 | Oat, Wild plant response rating [13, 19]: 0 | Rice plant response rating [14]: 0 | Sedge, Umbrella plant response rating [15]: 0 | Ducksalad plant response rating [16]: 0 | Barnyardgrass plant response rating [17]: 0
